# Assay results published in patent US20130158112A1, “COMPOSITIONS AND METHODS FOR INHIBITING BETA AMYLOID SECRETION” (priority 2011, published 2013).
# Where “and” joins values, the source holds several entries; their conditions need not be identical. Equal values may be shown once. Read-outs that look alike come from different tables or passages of the source.
# Experiments:
# Aβ secretion = experiment: Secreted total Aβ ELISA in conditioned media of H4βAPP695 wt cells; format: cell-based, human
# Outline: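 H4 […] cells stably expressing wild-type βAPP695 (CMV promoter), serum-starved 24 h, then exposed to drug in DMSO or vehicle for 24 h before Aβ in conditioned media was measured. Primary cortical neurons came from E18 APPswe/PSEN1dE9 mice on C57BL/6 background.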
# [1] = Body weight after one-week oral feeding; format: in vivo, mouse; settings: 0.31-2.5 g/kg in chow diet
# Protocol: (§1) In this Example, mutant APP/PS1 transgenic mice were obtained from Dr. Mathias Jucker (R Radde et al. 2006, EMBO Reports 7:940-946). […] The drug was milled into the chow diet (Harlan Teklad #2018) at 4 doses: 0.31, 0.62, 1.25, and 2.5 g/kg. Assuming each mouse eats 4 g of per day, the lowest dose should yield 1.24 mg intake per day, or about 75 mg/kg body weight. Six-week old female transgenic mice were fed ad librium with the chow diet or the diet supplemented with the four drug doses. […] At the end of the study, brains were isolated, and half brains were homogenized in a buffer containing guanidine hydrochloride and SDS. This extract was diluted and used in assays for total protein and an ELISA for Abeta levels. […] There was not a dose response in this study, as the effect appeared to plateau out even at the lowest dose of the drug, 0.31 g/kg diet. This oral diet study supported a prior finding using 3 oral gavages of this drug at an estimated dose of 200 mg/kg body weight delivered in Cremaphor over a 1.5 day period in which we observed a 30% decrease in cerebral Aβ levels (data not shown).
# H4βAPP695 wt cells = experiment: Cytotoxicity by total cell protein content (BCA) of H4βAPP695 wt cells; settings: cytotoxicity
# cerebral Aβ levels [2] = experiment: In vivo iv administration and cerebral Aβ assay; design: species or system mouse; settings: APP/PS1 transgenic mice, iv 100 to 125 mg/kg single dose, 6 h
# Protocol: Transgenic mice expressing humanized mutant versions of APP and presenilin 1 (APPswe, PSEN1dE9) on the C57BL/6 genetic background were obtained from Jackson Laboratories (strain no. 5864) and bred to wild type C57BL/6 mice in order to obtain ˜50% transgenic that were used in these studies. These mice develop Aβ senile plaques by 6 months of age. To prepare the drug stock, 17.5 mg of compound 48 was dissolved in 40 μL of DMSO, which was mixed sequentially with 110 μL of Cremophor EL (Sigma) and 900 μL of sterile saline. Two month old female transgenic mice weighing 20-25 g were anesthetized with ketamine/xylazine and injected iv via the retroorbital plexus with vehicle control or with 2.5 mg of compound 48 in 150 μL of the drug stock (yielding a dose of ˜100 to 125 mg/kg). Six h later, the mice were euthanized by CO2 inhalation, the brains were removed, and the cerebellum discarded. One brain hemisphere was homogenized for 45 s on ice using a tissue grinder in 1 mL of solution containing 5 M guanadine HCl, 50 mM Tris (final pH adjusted to 8.3), and 5% protease inhibitor cocktail. Any debris was removed by centrifugation for 10 min at 2000 g. The supernatant was diluted 1:10 in 20% casein blocker in PBS with 5% protease inhibitor cocktail. […] The protein concentration of the brain homogenate was determined with the BCA assay, and the total Aβ levels were normalized to brain protein levels. […]
# Caco-2 cells = experiment: Epithelial transcellular transport of drug activity through Caco-2 monolayers; format: in vitro ADME
# Protocol: (§2) H4βAPP695 wt cells, a human […] cell line stably transfected with a wtβAPP695 expression vector construct under the control of a CMV promoter (kindly provided by Dr. Chris Eckman from Mayo Clinic, Florida) were cultured as previously described. Twenty-four hours before drug treatment, the media was replaced with serum-free media. Cells were then incubated with drugs (dissolved in DMSO) or vehicle for 24 h for collection of conditioned media and cell lysates. For the PKC inhibitors experiment, three inhibitors were treated 30 min prior to drug challenge. Primary cortical neurons were prepared from embryonic day 18 APP and presenilin 1 (APPswe, PSEN1dE9) transgenic mice on the C57BL/6 genetic background (Jackson Laboratories, strain no. 5864) as previously described. THLE-3 human hepatoma cells (from ATCC) were plated in 24-well plates that were precoated with 10 μg/mL bovine serum albumin, 10 μg/mL fibronectin, and 30 μg/mL bovine type I collagen. The cells were grown in BEGM media (Clonetics) until confluent and treated with drugs at 20 μM for 24 h. This conditioned media was harvested, diluted 1:1 in serum-free medium, and incubated with H4βAPP695 wt cells for 24 h prior to analysis of secreted Aβ, which was compared to the effect of 10 μM drug treatments without prior incubation with the THLE-3 cells. Caco-2 cells (ATCC) were plated in 12-well plates with Transwell inserts (Costar) at 70000 cells per well and grown for 21 days. The media volume of the apical and basal chambers was 0.5 and 1.5 mL, respectively. Transepithelial resistance was measured in each well and found to be >160 Ω/cm^2. Drugs at 40 μM and 20 μg/mL of lucifer yellow were added in serum-free medium to the apical chamber. Four hours later, the basal chamber media was harvested and used to measure lucifer yellow fluorescence to confirm monolayer integrity as well as for treatment of H4βAPP695 wt cells for 24 h prior to analysis of secreted Aβ, which was compared to the effect of direct addition of 10 μM of the corresponding drug.
# Monolayer integrity was confirmed by high levels of transcellular electrical resistance (>160 ohms/cm^2) and by transcellular impermeability to the fluorescent dye lucifer yellow. […] The concentration of each compound added to the upper chamber would lead to 10 μM in the lower chamber if equilibration was complete, and thus the activity of the lower chamber media was compared to the activity of 10 μM drug added directly to the H4βAPP695 wt cells. […] Compound 1 crossed the monolayer and the bottom chamber media led to a 27% reduction in Aβ production, yielding 38% of the theoretical activity. The compound with the most activity in the lower chamber was compound 48, which decreased Aβ production by 50%, with 71% of its theoretical activity. […] On the basis of the combined activity data from these last two studies, compound 48 was selected as the lead drug for in vivo study.
# cerebral Aβ levels [3] = experiment: Oral treatment and cerebral Aβ ELISA in mutant APP/PS1 transgenic mice; format: in vivo, mouse; settings: 3 oral gavages, estimated 200 mg/kg in Cremaphor over 1.5 day
# Protocol: as §1
# [4] = test system: THLE-3 human hepatoma cells; experiment: Drug activity persistence after incubation with THLE-3 hepatoma cells; format: in vitro ADME; settings: for inhibition at 10 µM: Homo sapiens, THLE3, 24 h
# Protocol: as §2
# To screen for resistance to metabolism, 1 and eight noncytotoxic analogues with >50% Aβ reducing activity (compounds 27, 29, 48, 52, 53, 65, 73, and 76) were incubated at 20 μM for 24 h with or without THLE-3 human hepatoma cells.
smiles,measurement,setting,value
"Cc1cccc(CSCCNC(=O)c2c(Cl)cccc2Cl)c1 [Compound 48, 2,6-Dichloro-N-[2-(3-methyl-benzylsulfanyl)-ethyl]-benzamide]",inhibition at 30 µM,"Aβ secretion; Homo sapiens, 24 h, 30 μM, H4βAPP695 wt cells, 24 h, read-out: Total Aβ (% decrease) 30 μM Mean",85.8%
same,Aβ secretion inhibiting activity (structure activity summary),Aβ secretion; in words,good activity
same,effect on body weights,[1],no significant effect
same,Cell protein (% decrease) 10 μM Mean,H4βAPP695 wt cells; 10 μM,11.7%
same,Cell protein (% decrease) 30 μM Mean,H4βAPP695 wt cells; 30 μM,16.6%
same,reduction in cerebral Aβ levels,cerebral Aβ levels [2],39.6%
same,% theoretical activity,Caco-2 cells; % of activity passing through Caco-2 monolayer,71% and 70.8%
same,inhibition at 10 µM,"Caco-2 cells; Homo sapiens, Caco-2, 10 μM drug alone added directly to H4βAPP695 wt cells, read-out: transcellular transport No total Aβ (% decrease)",70.5%
same,inhibition at up to 10 µM,"Caco-2 cells; Homo sapiens, Caco-2, 4 h, lower chamber media after 4 h on Caco-2 monolayer, 10 μM if in equilibrium, read-out: transcellular transport Yes total Aβ (% decrease)",50%
same,melting point,,56 to 57 °C
same,"decrease in cerebral Aβ levels, oral gavage",cerebral Aβ levels [3],30%
same,inhibition at 10 µM,"[4]; 10 μM on H4 cells, without preincubation with hepatoma cells, read-out: hepatoma incubation No total Aβ (% decrease)",70.5%
same,inhibition at 10 µM,"[4]; 20 μM preincubated 24 h with THLE-3 hepatoma cells, diluted to 10 μM on H4 cells, read-out: hepatoma incubation Yes total Aβ (% decrease)",38%
same,% remaining Activity,[4]; after 24 h incubation with hepatoma cells,54%
